Values quoted from earlier work, collected in article PMC7461116, “Synthesis, Anticonvulsant and Antinociceptive Activity of New Hybrid Compounds: Derivatives of 3-(3-Methylthiophen-2-yl)-pyrrolidine-2,5-dione” (International Journal of Molecular Sciences, 2020).

Key:
Details in all cases: cited from earlier work
[1] = system: maximal electroshock seizures
[2] = system: PTZ-induced clonic seizures; set-up: method as in PMID 25933955
[3] = system: motor impairment on rotarod
[4] = system: latency time to pain reaction; set-up: method as in PMID 25933955

## Cc1ccsc1C(=CCCN1CCC[C@@H](C(=O)O)C1)c1sccc1C [tiagabine]
[1]
  MES: protection in words: did not show protection
[2]
  scPTZ: activity in words: active
[3]
  Rotarod: motor impairment in words: significant motor impairment
[4]
  Hot plate: dose at which analgesic activity was observed: 8 mg/kg
